In patent publication US20240148821A1, “PHARMACEUTICAL USE OF CYCLIC PEPTIDE COMPOUND” (CHUGAI SEIYAKU KABUSHIKI KAISHA, priority 2021, published 2024):
Numbered stars: 1 amine (or outer) side, 2 acyl side, 3 side chain; on linkers, the order of the positions; unused ones are H or OH. Bridge positions count the residues as written; N and C are the ends. Square brackets hold non-standard residues; d marks the D form. Peptide text beside a SMILES is read from it. * marks the point of attachment. hPhe(3,5-F2-4-CF3) = N[C@@H](CCc1cc(F)c(C(F)(F)F)c(F)c1)C(=O)O; hPhe(3-Cl-4-CF3) = N[C@@H](CCc1ccc(C(F)(F)F)c(Cl)c1)C(=O)O; hPhe(3-F,4-CF3) = N[C@@H](CCc1ccc(C(F)(F)F)c(F)c1)C(=O)O; X126 = O=C([C@H](Cc1cc(F)cc(I)c1)N[*:1])[*:2]; NMe3Pal(6-Me) = CN[C@@H](Cc1ccc(C)nc1)C(=O)O; NMePhe(4-Cl) = CN[C@@H](Cc1ccc(Cl)cc1)C(=O)O; NMePhe(3-F) = CN[C@@H](Cc1cccc(F)c1)C(=O)O; NMePhe(4-F) = CN[C@@H](Cc1ccc(F)cc1)C(=O)O; NMeGly(cPent) = CN[C@H](C(=O)O)C1CCCC1; Phe(3-I) = N[C@@H](Cc1cccc(I)c1)C(=O)O; Pro(4,4-F2) = O=C(O)[C@@H]1CC(F)(F)CN1; NMeY = CN[C@@H](Cc1ccc(O)cc1)C(=O)O; NMeCha = CN[C@@H](CC1CCCCC1)C(=O)O; NMeChg = CN[C@H](C(=O)O)C1CCCCC1; NMeD = CN[C@@H](CC(=O)O)C(=O)O; NMeL = CN[C@@H](CC(C)C)C(=O)O; NMehSer = CN[C@@H](CCO)C(=O)O; Ahp(2) = CCCCC[C@H](N)C(=O)O; dNMeAbu = CC[C@@H](NC)C(=O)O; NMeV = CN[C@H](C(=O)O)C(C)C; d(β3hA) = C[C@@H](N)CC(=O)O; NMeAbu = CC[C@H](NC)C(=O)O; NMeS = CN[C@@H](CO)C(=O)O; Morpholide = C1CN(*)CCO1; NMeA = CN[C@@H](C)C(=O)O; NMeAib = CNC(C)(C)C(=O)O; Nle = CCCC[C@H](N)C(=O)O; Piperidide = C1CCN(*)CC1; Pyrrolidide = C1CCN(*)C1; Ac5c = NC1(C(=O)O)CCCC1; Aze = O=C(O)[C@@H]1CCN1; Ac4c = NC1(C(=O)O)CCC1; Sar = CNCC(=O)O; Propyl = CCC*

Tested on: Human pancreatic cancer cell line AsPC-1 (G12D mutation Kras)
Assay: AsPC-1 cell growth inhibition (AsPC-1 CGI)
Assay type: cell-based
Settings: read-out: AsPC-1 cell growth inhibition, 50% growth inhibitory concentration (IC50 value); 96 hours, CellTiter-Glo, values classified in ranges
Procedure: Test compounds were serially dilated with dimethyl sulfoxide, and 200 nL was then dispensed to a U-bottom 96-well plate using Labcyte Echo. […] The cell suspension was dispensed to a. plate containing a test compound at 100 μL per well and incubated at 37° C. in a 5% carbon dioxide gas incubator. 96 hours later, 80 μL of CellTiter-Glo (Promega) was added to each well and fluorescence was measured.

SMILES | IC50
CCCC[C@@H]1NC(=O)[C@H](Cc2cccc(I)c2)NC(=O)CN(C)C(=O)[C@H](Cc2ccc(Cl)cc2)N(C)C(=O)CN(C)C(=O)CN(C)C(=O)[C@H]([C@@H](C)CC)NC(=O)[C@H](CC(C)C)N(C)C(=O)C[C@@H](C(=O)N2CCCCC2)N(C)C(=O)[C@H](CC(C)C)NC(=O)[C@H](Cc2cccc(F)c2)N(C)C1=O [Compound 483] ([NMeL]I[Sar][Sar][NMePhe(4-Cl)][Sar][Phe(3-I)][Nle][NMePhe(3-F)]L[NMeD]-Piperidide; lactam N-11) | > 500 nM
CC[C@H](C)[C@@H]1NC(=O)[C@H](CC(C)C)N(C)C(=O)C[C@@H](C(=O)N2CCCCC2)N(C)C(=O)[C@H](C2CCCCC2)N(C)C(=O)C2(CCCC2)NC(=O)[C@@H]2CCCN2C(=O)[C@H](CCc2ccc(C(F)(F)F)c(Cl)c2)NC(=O)CN(C)C(=O)[C@H](CCOC)N(C)C(=O)CN(C)C(=O)CN(C)C1=O [Compound 159] ([NMeL]I[Sar][Sar][NMehSer](Me)[Sar][hPhe(3-Cl-4-CF3)]P[Ac5c][NMeChg][NMeD]-Piperidide; lactam N-11) | > 500 nM
CC[C@H](C)[C@@H]1NC(=O)[C@H](C)N(C)C(=O)C[C@@H](C(=O)N2CCCCC2)N(C)C(=O)[C@H](C(C)C)N(C)C(=O)C2(CCCC2)NC(=O)[C@@H]2CCCN2C(=O)[C@H](CCc2ccc(C(F)(F)F)c(F)c2)NC(=O)CN(C)C(=O)[C@H](CC2CCCCC2)N(C)C(=O)CN(C)C(=O)CN(C)C1=O [Compound 266] ([NMeA]I[Sar][Sar][NMeCha][Sar][hPhe(3-F,4-CF3)]P[Ac5c][NMeV][NMeD]-Piperidide; lactam N-11) | > 500 nM
CC[C@H](C)[C@@H]1NC(=O)[C@H](CC(C)C)N(C)C(=O)C[C@@H](C(=O)N2CCCCC2)N(C)C(=O)[C@H](C2CCCCC2)N(C)C(=O)C2(CCCC2)NC(=O)[C@H](Cc2ccc(C)nc2)N(C)C(=O)[C@H](CCc2ccc(C(F)(F)F)c(Cl)c2)NC(=O)CN(C)C(=O)[C@H](CC2CCCCC2)N(C)C(=O)[C@@H]2CCN2C(=O)CN(C)C1=O [Compound 786] ([NMeL]I[Sar][Aze][NMeCha][Sar][hPhe(3-Cl-4-CF3)][NMe3Pal(6-Me)][Ac5c][NMeChg][NMeD]-Piperidide; lactam N-11) | > 500 nM
CC[C@H](C)[C@@H]1NC(=O)[C@H](C)N(C)C(=O)C[C@@H](C)NC(=O)[C@H](C(C)C)N(C)C(=O)C2(CCCC2)NC(=O)[C@@H]2CCCN2C(=O)[C@H](CCc2ccc(C(F)(F)F)c(Cl)c2)NC(=O)[C@H]2CCCN2C(=O)[C@H](Cc2ccc(F)cc2)N(C)C(=O)[C@@H]2CCCN2C(=O)CN(C)C1=O [Compound 1667] (cyclo([Ac5c][NMeV][d(β3hA)][NMeA]I[Sar]P[NMePhe(4-F)][dP][hPhe(3-Cl-4-CF3)]P)) | > 500 nM
CC[C@@H]1C(=O)NC2(CCCC2)C(=O)N(C)[C@@H](C(C)C)C(=O)N(C)[C@H](C(=O)N2CCCCC2)CC(=O)N(C)[C@@H](CC(C)C)C(=O)N[C@@H]([C@@H](C)CC)C(=O)N(C)[C@@H](C)C(=O)N2CC[C@H]2C(=O)N(C)[C@@H](CC2CCCCC2)C(=O)N(C)CC(=O)N[C@@H](CCc2ccc(C(F)(F)F)c(Cl)c2)C(=O)N1C [Compound 1438] ([NMeL]I[NMeA][Aze][NMeCha][Sar][hPhe(3-Cl-4-CF3)][dNMeAbu][Ac5c][NMeV][NMeD]-Piperidide; lactam N-11) | > 500 nM
CCCOC[C@H]1C(=O)N(C)CC(=O)N[C@@H](CCc2ccc(C(F)(F)F)c(Cl)c2)C(=O)N2CCC[C@H]2C(=O)NC2(CCCC2)C(=O)N(C)[C@@H](C2CCCC2)C(=O)N(C)[C@H](C(=O)N2CCOCC2)CC(=O)N(C)[C@@H](CC(C)C)C(=O)N[C@@H]([C@@H](C)CC)C(=O)N(C)[C@@H](C)C(=O)N2CC[C@H]2C(=O)N1C [Compound 974] ([NMeL]I[NMeA][Aze][NMeS](Propyl)[Sar][hPhe(3-Cl-4-CF3)]P[Ac5c][NMeGly(cPent)][NMeD]-Morpholide; lactam N-11) | ≤ 20 nM
CC[C@H](C)[C@@H]1NC(=O)[C@H](CC(C)C)N(C)C(=O)C[C@@H](C(=O)N2CCCC2)N(C)C(=O)[C@H](C2CCCCC2)N(C)C(=O)C2(CCC2)NC(=O)[C@@H]2CC(F)(F)CN2C(=O)[C@H](CCc2cc(F)c(C(F)(F)F)c(F)c2)NC(=O)CN(C)C(=O)[C@H](CC2CCCCC2)N(C)C(=O)CN(C)C(=O)CN(C)C1=O [Compound 1192] ([NMeL]I[Sar][Sar][NMeCha][Sar][hPhe(3,5-F2-4-CF3)][Pro(4,4-F2)][Ac4c][NMeChg][NMeD]-Pyrrolidide; lactam N-11) | ≤ 20 nM
CCCC[C@@H]1NC(=O)[C@H](Cc2cc(F)cc(I)c2)NC(=O)CN(C)C(=O)[C@H](Cc2ccc(OC)cc2)N(C)C(=O)[C@@H]2CCN2C(=O)[C@H](C)N(C)C(=O)[C@H]([C@@H](C)CC)NC(=O)[C@H](CC)N(C)C(=O)C[C@@H](C(=O)N2CCCCC2)N(C)C(=O)[C@H](CC(C)C)NC(=O)C(C)(C)N(C)C1=O [Compound 1226] ([NMeAbu]I[NMeA][Aze][NMeY](Me)[Sar][X126][Nle][NMeAib]L[NMeD]-Piperidide; lactam N-11) | > 500 nM
CCCCC[C@@H]1NC(=O)[C@H](CC(C)C)N(C)C(=O)C[C@@H](C(=O)N2CCCCC2)N(C)C(=O)[C@H](C2CCCCC2)N(C)C(=O)C2(CCCC2)NC(=O)[C@@H]2CCCN2C(=O)[C@H](CCc2ccc(C(F)(F)F)c(Cl)c2)NC(=O)CN(C)C(=O)[C@H](CC2CCCCC2)N(C)C(=O)CN(C)C(=O)CN(C)C1=O [Compound 1692] ([NMeL][Ahp(2)][Sar][Sar][NMeCha][Sar][hPhe(3-Cl-4-CF3)]P[Ac5c][NMeChg][NMeD]-Piperidide; lactam N-11) | > 500 nM
